# Test results reported in patent US20190038628A1, “USE OF INHIBITORS OF THE ACTIVITY OR FUNCTION OF PI3K FOR THE TREATMENT OF PRIMARY SJOGREN'S SYNDROME” (Novartis AG, priority 2016, published 2019).
# Where “and” joins values, the source holds several entries; their conditions need not be identical. Identical values can stand only once. Like-named read-outs stand apart in the source and are kept apart here.
# Assays:
# [1] = tested on: Akt-phosphorylation in IgM+ B cells; assay: Time-dependent inhibition of Akt-phosphorylation ex vivo by a single oral dose in rats; set-up: species or system Lewis rats; settings: 10 mg/kg p.o. single dose; for inhibition at 10 mg/kg: Rattus norvegicus, B-cell, po; for % inhibition of pAkt in IgM+ B cells: rat, individual rats 1-4, 10 mg/kg
# Experimental: All experiments were performed with adult male Lewis rats (LEW/Han/Hsd, Charles River, Germany and LEW/Orl@Rj, Janvier, France), weighing 220-280 g.
# The suspension for administration was freshly prepared and stored in the dark at room temperature. 14.8 mg of compound A was suspended in 5.92 ml CMC 0.5% with 0.5% Tween80. The milky, homogeneous suspensions were then applied to the animal. The test substances were administered p.o. at in a volume of 4 ml/kg body weight resulting in an oral dose of 10 mg/kg.
# Animals were anaesthetized with isoflurane using a Fluvac airflow system. Whole blood was collected sublingually pre-dose and at 1, 2, 4, 6, 8, 10, 12 and 24 hours post-dose. For pharmacodynamic analysis 100 μl rat blood was collected per time point in Eppendorf tubes with 30 IU sodium heparin (B. Braun, Melsungen, Germany; 5000 I.U./ml). For pharmacokinetic analysis 150 μl rat blood was collected per time point in EDTA coated Eppendorf (Milian cat# TOM-14) tubes.
# For ex vivo analysis of blood from drug-treated animals, […] heparinized blood was mixed in 5 ml U-bottom tubes (BD, cat#352063) with […] of RPMI medium (Gibco, cat#31870) immediately after blood collection, and activated with 10 μl of anti-rat IgM/rIL-4 at a final concentration of anti-rat IgM of […] and rIL-4 of 10 ng/ml. Control samples were left unstimulated. Samples were mixed thoroughly and incubated for 10 minutes at 37° C. in the water bath.
# After incubation, 2 ml of pre-warmed (37° C. in water bath) BD Phosflow Lyse/Fix buffer was added per tube. Samples were mixed thoroughly and incubated for 20 minutes at 37° C. in the water bath. Then samples were centrifuged at 400 g for 5 minutes. After centrifugation 2 ml of BD Phosflow Perm/wash buffer was added per tube. Samples were mixed thoroughly and incubated at room temperature (RT) in the dark for 10 minutes. Thereafter, the samples were snap-frozen on dry ice and then stored at −80° C. until FACS staining.
# For thawing, all samples were incubated for 10 minutes in the water bath at 25° C. After centrifugation at 400 g for 5 minutes the pellets were washed with 2 ml of BD Phosflow Perm/wash buffer and again centrifuged at 400 g for 5 minutes. Supernatants were removed. For analysis of pAkt, samples were stained with PE-labeled anti-rat IgM (BD, cat#553888) to allow gating on B cells in FACS analysis. In addition, samples were stained with Alexa647 conjugated anti-phospho-Akt (Ser473; BD, cat#560343). Staining procedures were performed in a total volume of 100 μl BD Phosflow Perm/wash buffer at RT for 30 minutes in the dark. After incubation, samples were washed with 2 ml of BD Phosflow Perm/wash buffer and centrifuged at 400 g for 5 minutes and the pellets were resuspended in 300 μl BD Stain Buffer (BD, cat#554656). Samples were kept on ice until data were acquired on an LSRII flow cytometer (BD Biosciences) using DIVA software (version 6.1.2). Lymphocytes were gated in the FSC/SSC dot blot according to size and granularity and further analyzed for expression of IgM and phosphorylation of Akt. Data were calculated from dot blots or histograms as percentage of cells positively stained for Akt-phosphorylation within the IgM+ population.
# The effects of the drugs ex vivo were expressed as inhibition of Akt-phosphorylation measured by flow cytometry. The percentage inhibition of Akt-phosphorylation was calculated by the following formula: […]
# Group of four Lewis rats were treated with a single oral dose of 10 mg/kg of compound A. At indicated time points, 50% rat whole blood was stimulated with anti-rat IgM/rIL-4 and Akt-phosphorylation was determined as described in the Method section.
# [2] = tested on: Human Peripheral Blood Mononuclear Cells (PBMC); assay: TLR9 ligand-induced CXCL13 production of human PBMC; format: cell-based; settings: ODN stimulus; for CXCL13 in culture supernatant: individual donors 1-6; for CXCL13 in culture supernatant, mean: mean of 6 donors
# Source text: For evaluating the effect of compound A on the production of chemokines relevant for the formation of germinal centers, PBMC were isolated from Buffy Coat (collected through Inter-Regionale Blutspende of the Swiss Red Cross) by standard Ficoll gradient centrifugation using Ficoll-Paque plus (GE healthcare #17-1440-03) in Leucosep tubes (Greiner Bio-one #227289). Cells were washed two times with PBS and then resuspended at 2.2×10^6/mL in RPMI 1640 medium supplemented with 10% FBS, Gentamycine (50 ug/ml), Insulin-Transferrin-Selenium and P-Mercaptoethanol (50 uM).
# PBMC were dispensed to 48-well plates (Costar #3548) and incubated with pre-diluted compound A resulting in a dilution with a final concentration of 0.3, 1 or 3 uM. Control samples were pretreated with DMSO to obtain a final concentration of 0.03% DMSO. Samples were mixed thoroughly and incubated in a humified incubator at 37° C. for 1 h. Cells were thereafter stimulated by the addition of the TLR9 agonist ODN M362 (Invivogen, #tlrl-m362) at a final concentration of 30 ug/ml or anti-IgM-Dextran (Finabiosolution #0004) at a final concentration of 2 ug/ml. Control samples were left unstimulated. Samples were mixed thoroughly and incubated in a humified incubator at 37° C. for 24 h.
# After the stimulation, culture supernatants were harvested and chemokines quantified by Bio-Plex Multiplex immunoassay (CXCL13; Bio Rad #171 BK12MR2) or MSD V-Plex assay (IP-10; Meso Scale Diagnostics) or according to the manufacturer's instructions.
smiles,measurement,setting,value
"CCC(=O)N1CC[C@H](Nc2ncnc3c2CN(c2cnc(OC)c(C(F)(F)F)c2)CC3)C1 [Compound A, 1-{(S)-3-[6-(6-Methoxy-5-trifluoromethyl-pyridin-3-yl)-5,6,7,8-tetrahydro-pyrido[4,3-d]pyrimidin-4-ylamino]-pyrrolidin-1-yl}-propan-1-one]",inhibition at 10 mg/kg,"[1]; 0 h, time 0 h (pre-dose), mean of four animals, read-out: % inhibition of pAkt in IgM+ B cells, Average",0%
same,inhibition at 10 mg/kg,"[1]; 1 h, time 1 h, individual rats 1-4, read-out: % inhibition of pAkt in IgM+ B cells",100%
same,inhibition at 10 mg/kg,"[1]; 1 h, time 1 h, mean of four animals, read-out: % inhibition of pAkt in IgM+ B cells, Average",98.2%
same,inhibition at 10 mg/kg,"[1]; 2 h, time 2 h, individual rats 1-4, read-out: % inhibition of pAkt in IgM+ B cells",101%
same,inhibition at 10 mg/kg,"[1]; 2 h, time 2 h, mean of four animals, read-out: % inhibition of pAkt in IgM+ B cells, Average",99.6%
same,inhibition at 10 mg/kg,"[1]; 4 h, time 4 h, mean of four animals, read-out: % inhibition of pAkt in IgM+ B cells, Average",95.1%
same,inhibition at 10 mg/kg,"[1]; 6 h, time 6 h, mean of four animals, read-out: % inhibition of pAkt in IgM+ B cells, Average",88.2%
same,inhibition at 10 mg/kg,"[1]; 8 h, time 8 h, mean of four animals, read-out: % inhibition of pAkt in IgM+ B cells, Average",79.4%
same,inhibition at 10 mg/kg,"[1]; 10 h, time 10 h, individual rats 1-4, read-out: % inhibition of pAkt in IgM+ B cells",69%
same,inhibition at 10 mg/kg,"[1]; 10 h, time 10 h, mean of four animals, read-out: % inhibition of pAkt in IgM+ B cells, Average",70.7%
same,inhibition at 10 mg/kg,"[1]; 12 h, time 12 h, individual rats 1-4, read-out: % inhibition of pAkt in IgM+ B cells",74.3%
same,inhibition at 10 mg/kg,"[1]; 12 h, time 12 h, mean of four animals, read-out: % inhibition of pAkt in IgM+ B cells, Average",72.1%
same,inhibition at 10 mg/kg,"[1]; 24 h, time 24 h, mean of four animals, read-out: % inhibition of pAkt in IgM+ B cells, Average",30.2%
same,% inhibition of pAkt in IgM+ B cells,[1]; time 0 h (pre-dose),−2.0% and 15.7% and 6.9% and −20.6%
same,% inhibition of pAkt in IgM+ B cells,[1]; time 1 h,95.6% and 99.1%
same,% inhibition of pAkt in IgM+ B cells,[1]; time 2 h,97.3% and 101.8%
same,% inhibition of pAkt in IgM+ B cells,[1]; time 4 h,93.8% and 105.3% and 81.4%
same,% inhibition of pAkt in IgM+ B cells,[1]; time 6 h,76.1% and 99.1% and 94.7% and 83.1%
same,% inhibition of pAkt in IgM+ B cells,[1]; time 8 h,83.1% (2×) and 85.8% and 65.4%
same,% inhibition of pAkt in IgM+ B cells,[1]; time 10 h,76.9% and 62.7%
same,% inhibition of pAkt in IgM+ B cells,[1]; time 12 h,71.6% and 73.4%
same,% inhibition of pAkt in IgM+ B cells,[1]; time 24 h,30.8% and 40.6% and 37.0% and 12.2%
same,inhibition at 0.3 µM,"[2]; Homo sapiens, PBMC, Compound A 300 nM",40%
same,inhibition at 1 µM,"[2]; Homo sapiens, PBMC, Compound A 1000 nM",51%
same,inhibition at 3 µM,"[2]; Homo sapiens, PBMC, Compound A 3000 nM",55%
same,CXCL13 in culture supernatant,[2]; Compound A 300 nM,8 pg/ml (2×) and 3 pg/ml and 39 pg/ml and 113 pg/ml and 51 pg/ml
same,"CXCL13 in culture supernatant, mean",[2]; Compound A 300 nM,37 pg/mL
same,CXCL13 in culture supernatant,[2]; Compound A 1000 nM,7 pg/ml and 3 pg/ml and 42 pg/ml (2×) and 84 pg/ml and 6 pg/ml
same,"CXCL13 in culture supernatant, mean",[2]; Compound A 1000 nM,31 pg/mL
same,CXCL13 in culture supernatant,[2]; Compound A 3000 nM,5 pg/mL and 3 pg/mL and 29 pg/mL and 86 pg/mL and 41 pg/mL and 4 pg/mL
same,"CXCL13 in culture supernatant, mean",[2]; Compound A 3000 nM,28 pg/mL
